Structures are written as SMILES.

The target of the test is T1, CFTR in F508del/MF-HBE cells (Homo sapiens, UniProt P13569, DEL508-508).
T1 construct: human bronchial epithelial (HBE) cells derived from CF subjects heterozygous for F508del and a minimal function CFTR mutation; endogenous in cells; host or cells: primary human bronchial epithelial cells from CF subjects (F508del/MF-HBE)
T1 sequence (P13569 with tags, fused parts or gaps DEL508-508): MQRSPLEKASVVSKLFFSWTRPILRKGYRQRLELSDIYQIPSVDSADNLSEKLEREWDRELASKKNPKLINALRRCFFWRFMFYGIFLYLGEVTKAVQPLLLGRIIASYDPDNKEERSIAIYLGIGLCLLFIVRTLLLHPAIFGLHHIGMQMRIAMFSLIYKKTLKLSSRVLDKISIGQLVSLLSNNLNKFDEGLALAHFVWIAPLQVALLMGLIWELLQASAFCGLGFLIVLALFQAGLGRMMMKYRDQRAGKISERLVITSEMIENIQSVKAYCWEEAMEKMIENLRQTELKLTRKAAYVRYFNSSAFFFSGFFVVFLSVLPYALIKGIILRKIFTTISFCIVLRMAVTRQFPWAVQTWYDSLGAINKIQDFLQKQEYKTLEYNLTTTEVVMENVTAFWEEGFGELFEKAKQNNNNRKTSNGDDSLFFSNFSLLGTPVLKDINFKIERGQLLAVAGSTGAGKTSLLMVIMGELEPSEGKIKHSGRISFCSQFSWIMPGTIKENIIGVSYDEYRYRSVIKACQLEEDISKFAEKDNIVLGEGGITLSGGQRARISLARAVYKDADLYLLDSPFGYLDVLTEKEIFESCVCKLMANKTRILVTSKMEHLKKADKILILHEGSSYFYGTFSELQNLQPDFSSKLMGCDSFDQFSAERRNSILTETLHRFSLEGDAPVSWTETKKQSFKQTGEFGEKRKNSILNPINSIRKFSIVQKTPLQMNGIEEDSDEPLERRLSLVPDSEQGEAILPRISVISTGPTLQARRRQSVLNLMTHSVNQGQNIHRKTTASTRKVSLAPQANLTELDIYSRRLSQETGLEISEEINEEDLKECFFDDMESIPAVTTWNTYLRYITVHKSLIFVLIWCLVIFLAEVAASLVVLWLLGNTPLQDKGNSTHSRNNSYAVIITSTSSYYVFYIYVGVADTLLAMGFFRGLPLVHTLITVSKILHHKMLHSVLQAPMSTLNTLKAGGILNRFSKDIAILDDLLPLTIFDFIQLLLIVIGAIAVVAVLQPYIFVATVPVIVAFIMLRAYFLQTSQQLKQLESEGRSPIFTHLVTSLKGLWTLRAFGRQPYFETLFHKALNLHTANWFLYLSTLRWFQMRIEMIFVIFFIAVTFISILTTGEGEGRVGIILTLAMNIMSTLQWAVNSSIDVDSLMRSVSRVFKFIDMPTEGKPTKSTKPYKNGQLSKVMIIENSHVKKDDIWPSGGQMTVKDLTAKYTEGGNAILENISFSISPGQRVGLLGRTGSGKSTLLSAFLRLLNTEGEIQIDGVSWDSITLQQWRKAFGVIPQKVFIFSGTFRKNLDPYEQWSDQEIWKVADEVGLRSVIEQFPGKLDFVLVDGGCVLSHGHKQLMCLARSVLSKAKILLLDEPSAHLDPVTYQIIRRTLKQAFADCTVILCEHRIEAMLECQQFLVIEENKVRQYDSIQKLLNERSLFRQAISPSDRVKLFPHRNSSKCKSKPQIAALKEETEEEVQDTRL
The experiment in a line: Ussing chamber assay of CFTR-mediated short-circuit currents (identification of potentiator compounds). It is filed as cell-based. Particulars: potentiator incubated 18-24 hours at 37° C. in combination with 10 μM corrector, in the presence of 20% human serum, CFTR-mediated ISC. Summed up:
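Short-circuit current was measured in Ussing chambers at 37° C, Vhold 0 mV, 30 μM apical amiloride. CFTR current was defined as the forskolin (20 μM) response relative to the current remaining after BPO/GlyH-101/inhibitor 172 (20 μM each). Before recording, cells had 18-24 h exposure to test potentiators with 10 μM corrector compound in 20% human serum.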
One may read the EC50 as the concentration that produces a half-maximal response. Consider `Nc1cc(C(F)(F)F)c2nc1-c1nnc(o1)[C@@](O)(C(F)(F)F)CCCCCN(Cc1ccc(C3CC3)cc1)C2=O` [Compound 217, (6R)-17-amino-12-[(4-cyclopropylphenyl)methyl]-6-hydroxy-6,15-bis(trifluoromethyl)-19-oxa-3,4,12,18-tetrazatricyclo [12.3.1.12,5] nonadeca-1(18),2,4,14,16-pentaen-13-one], for which the half-maximal effective concentration (EC50) is less than 500 nM.
Next, `CC(C)(C1CC1)N1CCCCC[C@](O)(C(F)(F)F)C2=NN=C(O2)c2nc(c(C(F)(F)F)cc2N)C1=O` [Compound 218, (6R)-17-amino-12-(1-cyclopropyl-1-methyl-ethyl)-6-hydroxy-6,15-bis(trifluoromethyl)-19-oxa-3,4,12,18-tetrazatricyclo [12.3.1.12,5] nonadeca-1(18),2,4,14,16-pentaen-13-one]: less than 500 nM; `CC1(N2CCCCC[C@](O)(C(F)(F)F)C3=NN=C(O3)c3nc(c(C(F)(F)F)cc3N)C2=O)CCCCC1` [Compound 219, (6R)-17-amino-6-hydroxy-12-(1-methylcyclohexyl)-6,15-bis(trifluoromethyl)-19-oxa-3,4,12,18-tetrazatricyclo [12.3.1.12,5] nonadeca-1(18),2,4,14,16-pentaen-13-one]: less than 500 nM; `Nc1cc(C(F)(F)F)c2nc1-c1nnc(o1)[C@@](O)(C(F)(F)F)CCCCCN(Cc1cccc(C3(C(F)(F)F)CC3)c1)C2=O` [Compound 220, (6R)-17-amino-6-hydroxy-6,15-bis(trifluoromethyl)-12-[[3-[1-(trifluoromethyl)cyclopropyl]phenyl]methyl]-19-oxa-3,4,12,18-tetrazatricyclo [12.3.1.12,5] nonadeca-1(18),2,4,14,16-pentaen-13-one]: less than 500 nM.
`CC(C)(C)c1cccc(CN2CCCCC[C@](O)(C(F)(F)F)C3=NN=C(O3)c3nc(c(C(F)(F)F)cc3N)C2=O)c1` [Compound 221, (6R)-17-amino-12-[(3-tert-butylphenyl)methyl]-6-hydroxy-6,15-bis(trifluoromethyl)-19-oxa-3,4,12,18-tetrazatricyclo [12.3.1.12,5] nonadeca-1(18),2,4,14,16-pentaen-13-one]: the EC50 was less than 500 nM.
Under `CC(C)(c1cccc(CN2CCCCC[C@](O)(C(F)(F)F)C3=NN=C(O3)c3nc(c(C(F)(F)F)cc3N)C2=O)c1)C(F)(F)F` [Compound 222, (6R)-17-amino-6-hydroxy-12-[[3-(2,2,2-trifluoro-1,1-dimethyl-ethyl)phenyl]methyl]-6,15-bis(trifluoromethyl)-19-oxa-3,4,12,18-tetrazatricyclo [12.3.1.12,5] nonadeca-1(18),2,4,14,16-pentaen-13-one] stands less than 500 nM; under `Nc1cc(C(F)(F)F)c2nc1-c1nnc(o1)[C@@](O)(C(F)(F)F)CCCCCN(Cc1cccc(OCC3(C(F)(F)F)CC3)c1)C2=O` [Compound 223, (6R)-17-amino-6-hydroxy-6,15-bis(trifluoromethyl)-12-[[3-[[1-(trifluoromethyl)cyclopropyl]methoxy]phenyl]methyl]-19-oxa-3,4,12,18-tetrazatricyclo [12.3.1.12,5] nonadeca-1(18),2,4,14,16-pentaen-13-one], less than 500 nM.
Under `Nc1cc(C(F)(F)F)c2nc1-c1nnc(o1)[C@@](O)(C(F)(F)F)CCCCCN(Cc1cccc(C3CC(F)(F)C3)c1)C2=O` [Compound 224, (6R)-17-amino-12-[[3-(3,3-difluorocyclobutyl)phenyl]methyl]-6-hydroxy-6,15-bis(trifluoromethyl)-19-oxa-3,4,12,18-tetrazatricyclo [12.3.1.12,5] nonadeca-1(18),2,4,14,16-pentaen-13-one] stands less than 500 nM; under `Cc1cc(C)cc(CN2CCCCC[C@](O)(C(F)(F)F)C3=NN=C(O3)c3nc(c(C(F)(F)F)cc3N)C2=O)c1` [Compound 225, (6R)-17-amino-12-[(3,5-dimethylphenyl)methyl]-6-hydroxy-6,15-bis(trifluoromethyl)-19-oxa-3,4,12,18-tetrazatricyclo [12.3.1.12,5] nonadeca-1(18),2,4,14,16-pentaen-13-one], less than 500 nM; under `CC(C)(C)C1(N2CCCCC[C@](O)(C(F)(F)F)C3=NN=C(O3)c3nc(c(C(F)(F)F)cc3N)C2=O)CC1` [Compound 226, (6R)-17-amino-12-(1-tert-butylcyclopropyl)-6-hydroxy-6,15-bis(trifluoromethyl)-19-oxa-3,4,12,18-tetrazatricyclo [12.3.1.12,5] nonadeca-1(18),2,4,14,16-pentaen-13-one], less than 500 nM.
In the case of `Nc1cc(C(F)(F)F)c2nc1-c1nnc(o1)[C@@](O)(C(F)(F)F)CCCCCN(Cc1cccc(C3CCC3)c1)C2=O` [Compound 229, (6R)-17-amino-12-[(3-cyclobutylphenyl)methyl]-6-hydroxy-6,15-bis(trifluoromethyl)-19-oxa-3,4,12,18-tetrazatricyclo [12.3.1.12,5] nonadeca-1(18),2,4,14,16-pentaen-13-one], the EC50 is less than 500 nM.
In the case of `COc1cc(CN2CCCCC[C@](O)(C(F)(F)F)C3=NN=C(O3)c3nc(c(C(F)(F)F)cc3N)C2=O)ccc1C(F)(F)F` [Compound 230, (6R)-17-amino-6-hydroxy-12-[[3-methoxy-4-(trifluoromethyl)phenyl]methyl]-6,15-bis(trifluoromethyl)-19-oxa-3,4,12,18-tetrazatricyclo [12.3.1.12,5] nonadeca-1(18),2,4,14,16-pentaen-13-one], the EC50 was less than 500 nM.
Turning to `Nc1cc(C(F)(F)F)c2nc1-c1nnc(o1)[C@@](O)(C(F)(F)F)CCCCCN(Cc1cccc(C3CC3)c1)C2=O` [Compound 231, (6R)-17-amino-12-[(3-cyclopropylphenyl)methyl]-6-hydroxy-6,15-bis(trifluoromethyl)-19-oxa-3,4,12,18-tetrazatricyclo [12.3.1.12,5] nonadeca-1(18),2,4,14,16-pentaen-13-one], the EC50 is less than 500 nM.
Under `Nc1cc(C(F)(F)F)c2nc1-c1nnc(o1)[C@@](O)(C(F)(F)F)CCCCCN(Cc1cccc(C34CC(C3)C4)c1)C2=O` [Compound 240] stands less than 500 nM; under `Nc1cc(C(F)(F)F)c2nc1-c1nnc(o1)[C@@](O)(C(F)(F)F)CCCCCN(Cc1cccc(C(F)F)c1)C2=O` [Compound 241, (6R)-17-amino-12-[[3-(difluoromethyl)phenyl]methyl]-6-hydroxy-6,15-bis(trifluoromethyl)-19-oxa-3,4,12,18-tetrazatricyclo [12.3.1.12,5] nonadeca-1(18),2,4,14,16-pentaen-13-one], less than 500 nM; under `Nc1cc(C(F)(F)F)c2nc1-c1nnc(o1)[C@@](O)(C(F)(F)F)CCCCCN(CC1CCC(F)(F)CC1)C2=O` [Compound 242, (6R)-17-amino-12-[(4,4-difluorocyclohexyl)methyl]-6-hydroxy-6,15-bis(trifluoromethyl)-19-oxa-3,4,12,18-tetrazatricyclo [12.3.1.12,5] nonadeca-1(18),2,4,14,16-pentaen-13-one], less than 500 nM.
Next, `Nc1cc(C(F)(F)F)c2nc1-c1nnc(o1)[C@@](O)(C(F)(F)F)CCCCCN(CC1CC(F)(F)C1)C2=O` [Compound 243, (6R)-17-amino-12-[(3,3-difluorocyclobutyl)methyl]-6-hydroxy-6,15-bis(trifluoromethyl)-19-oxa-3,4,12,18-tetrazatricyclo [12.3.1.12,5] nonadeca-1(18),2,4,14,16-pentaen-13-one]: less than 500 nM; `CC(C)(O)c1cccc(CN2CCCCC[C@](O)(C(F)(F)F)C3=NN=C(O3)c3nc(c(C(F)(F)F)cc3N)C2=O)c1` [Compound 244, (6R)-17-amino-6-hydroxy-12-[[3-(1-hydroxy-1-methyl-ethyl)phenyl]methyl]-6,15-bis(trifluoromethyl)-19-oxa-3,4,12,18-tetrazatricyclo [12.3.1.12,5] nonadeca-1(18),2,4,14,16-pentaen-13-one]: less than 500 nM.
In the case of `Nc1cc(C(F)(F)F)c2nc1-c1nnc(o1)[C@@](O)(C(F)(F)F)CCCCCN(CC1C3(CC3)C13CC3)C2=O` [Compound 245, (6R)-17-amino-12-(dispiro[2.0.24.13]heptan-7-ylmethyl)-6-hydroxy-6,15-bis(trifluoromethyl)-19-oxa-3,4,12,18-tetrazatricyclo [12.3.1.12,5] nonadeca-1(18),2,4,14,16-pentaen-13-one], the EC50 is less than 500 nM.
Next, `Nc1cc(C(F)(F)F)c2nc1-c1nnc(o1)[C@@](O)(C(F)(F)F)CCCCCN(CC1C3CCCCC31)C2=O` (stereo partly drawn) [Compound 246, (6R)-17-amino-6-hydroxy-12-(norcaran-7-ylmethyl)-6,15-bis(trifluoromethyl)-19-oxa-3,4,12,18-tetrazatricyclo [12.3.1.12,5] nonadeca-1(18),2,4,14,16-pentaen-13-one]: less than 500 nM; `Nc1cc(C(F)(F)F)c2nc1-c1nnc(o1)[C@@](O)(C(F)(F)F)CCCCCN(Cc1cc(F)cc(C3CC3)c1)C2=O` [Compound 247, (6R)-17-amino-12-[(3-cyclopropyl-5-fluoro-phenyl)methyl]-6-hydroxy-6,15-bis(trifluoromethyl)-19-oxa-3,4,12,18-tetrazatricyclo [12.3.1.12,5] nonadeca-1(18),2,4,14,16-pentaen-13-one]: less than 500 nM.
Next, `Nc1cc(C(F)(F)F)c2nc1-c1nnc(o1)[C@@](O)(C(F)(F)F)CCCCCN(Cc1cc(F)cc(C3CCC3)c1)C2=O` [Compound 248, (6R)-17-amino-12-[(3-cyclobutyl-5-fluoro-phenyl)methyl]-6-hydroxy-6,15-bis(trifluoromethyl)-19-oxa-3,4,12,18-tetrazatricyclo [12.3.1.12,5] nonadeca-1(18),2,4,14,16-pentaen-13-one]: less than 500 nM.
